# Results taken from the SangsterLogP compilation.
row,Compound,logP
1,CO[C@@H]1CCCC[C@]1(c1cccs1)N1CCCCC1,4.89
2,c1csc(C2(N3CCCCC3)CCCCC2)c1,6.02
3,c1ccc(C2(N3CCCCC3)CCCCC2)cc1,5.74
4,C[C@@H]1CC(C)(C)C[C@](c2ccccc2)(N2CCCCC2)C1,6.35
5,C[C@H]1CCCC[C@@]1(c1cccs1)N1CCCCC1,7.29
6,CC(C)(C)C1CCC(c2ccccc2)(N2CCCCC2)CC1 (stereo not given),6.67
7,C[C@H]1CCC[C@](c2ccccc2)(N2CCCCC2)C1,5.86
8,CC1CCC(c2ccccc2)(N2CCCCC2)CC1 (stereo not given),5.66
9,CO[C@H]1CCCC[C@@]1(c1ccccc1)N1CCCCC1,4.73
10,C[C@H]1CCCC[C@@]1(c1ccccc1)N1CCCCC1,6.75
